The series is described as follows: Solubility of CP and CP-A peptides. The class given is physicochemical. An excerpt:
A variety of solvents and carriers can be tested to improve their solubility. Solvents and/or carriers that improve solubility of CP and CP-A include, but are not limited to, ethanol, dimethylsulphoxide (DMSO), dimethyl formamide (DMF), and trifluoracetic acid (TFA). When using DMSO as a solvent, the final concentration used in the cell function experiments may range from 0.063%-0.250%. Stock solutions of CP and CP-A can be prepared in DMSO and used at a 1:2000, 1:1000, or 1:400 dilution. In one embodiment, drug delivery systems (i.e., for example, lipid vesicles) can be used to increase solubility and bioavailability of CP and CP-A.

As to “H-GFLSKSLVF-OH [CP, NH2-Gly-Phe-Leu-Ser-Lys-Ser-Leu-Val-Phe-OH]”, the “solubility in aqueous solutions” value is “insoluble in aqueous solutions”. With “H-GFLSASLVF-OH [CP-A, NH2-Gly-Phe-Leu-Ser-Ala-Ser-Leu-Val-Phe-OH]”, the “solubility in aqueous solutions” value is on record as “insoluble in aqueous solutions”.

The record behind these values is US9981004B2, “Inhibition of TREM receptor signaling with peptide variants” (SignaBlok, Inc., priority 2009, dated 2018).
